What all share (assay): NCI anticancer screen, dose series, 48 h
Test [1] relates to HOP-62.
Test [2] deals with HCT-15.
Test [3] relates to Malme-3M.
Test [4] deals with IGROV-1.
In test [5] the test system is HCT-116.
The test system of test [6] is U-251.
Test [7] deals with DU-145.
The test system of test [8] is TK-10.
Test [9] has as its system A549.
The subject of test [10] is Hs-578T.
Test [11] has as its system K562.
Test [12] has as its system NCI-H226.
For test [13], the system named is COLO 205.
Test [14] deals with UACC-62.
The test system of test [15] is MDA-MB-231.
Test [16] concerns SW-620.
The subject of test [17] is NCI-H460.
Test [18] concerns RPMI-8226.
Test [19] has as its system HL-60.
Test [20] deals with SR.

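Growth conditions: 96-well plates. Treatment: test compound, 48 hours, 5 concentrations. Analysis: linear interpolation between bracketing concentrations; unreached endpoints set to highest concentration. The concentration for 50% growth inhibition is given as GI50.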 The source made the active and inactive calls. No stated cut-off is given here; in the data, active = GI50 up to about 1.1 µM and inactive = higher. A value given as a limit tells only on which side of the number the result lay.

As for `O=C1C(=C/C=C2/SC(c3ccccc3)(c3ccccc3)c3ccccc32)C(=O)c2ccccc21`, the GI50 was > 100 µM (inactive) in test [1]; above 100 µM in test [2]; > 100 µM (inactive) in test [3]; > 100 µM (inactive) in [4]; > 100 µM (inactive) in test [5]; > 100 µM (inactive) in [6]. The GI50 in test [7], in test [8], in test [9], in test [10], in test [11] and in [12] was > 100 µM (inactive) throughout. The GI50 in test [13], in test [14], in test [15], in test [16], in test [17] and in test [18] was > 100 µM (inactive) in each case.

Consider `COc1ccc2c(c1)C(=O)OCCC2`, for which the GI50 was > 100 µM (inactive) in [1]; above 100 µM in [2]; > 100 µM (inactive) in test [19]; > 100 µM (inactive) in test [4]; > 100 µM (inactive) in test [5]; > 100 µM (inactive) in [6]. Moreover, the GI50 in test [7], in [8], in [9], in test [10], in test [11] and in test [12] was > 100 µM (inactive) each time. In addition, the GI50 in [13], in test [14], in test [15], in test [16], in [17] and in test [18] was > 100 µM (inactive) each time.

For `Clc1cc(Cl)ncn1`, the GI50 was > 100 µM (inactive) in test [1]; above 100 µM in [2]; > 100 µM (inactive) in test [3]; > 100 µM (inactive) in test [4]; > 100 µM (inactive) in test [5]; > 100 µM (inactive) in test [6]. The GI50 in [7], in test [8], in [9], in [10], in [11] and in test [12] was > 100 µM (inactive) each time. Moreover, the GI50 in test [13], in [14], in test [15], in test [20], in [16] and in [17] was > 100 µM (inactive) throughout. Besides, the GI50 in test [18] was 40.9 µM (inactive).

Consider `COC(=O)C1=C(C)N2[C@H](C(=O)O)CS[C@@]2(C)[C@H](C(=O)OC)[C@H]1c1cccc([N+](=O)[O-])c1`, for which the GI50 was > 100 µM (inactive) in test [1]; above 100 µM in test [2]; > 100 µM (inactive) in test [3]; > 100 µM (inactive) in [4]; > 100 µM (inactive) in [5]; > 100 µM (inactive) in [6]. For the same compound, the GI50 in test [7], in [8], in test [9], in [10], in test [11] and in test [12] was > 100 µM (inactive) in each case. For the same compound, the GI50 in test [13], in test [14], in [15], in [20], in test [16] and in [17] was > 100 µM (inactive) each time. Also, the GI50 in test [18] was > 100 µM (inactive).

For `C[C@]12CC(c3ccccc3O1)C(C(=O)NC13CC4CC(CC(C4)C1)C3)C(=O)N2` (some centres not stated), the GI50 was 44.3 µM (inactive) in test [1]; 25.9 µM in test [2]; 33 µM (inactive) in [3]; 31.4 µM (inactive) in test [4]; 18.4 µM (inactive) in test [5]; 36.6 µM (inactive) in test [6]. In addition, the GI50 was 38.4 µM (inactive) in [7]; 70.1 µM (inactive) in test [8]; 21.1 µM (inactive) in test [9]; 55.7 µM (inactive) in test [10]; 14 µM (inactive) in test [11]; 23.6 µM (inactive) in test [12]. The GI50 in test [13] is 15.6 µM (inactive); in test [14] it was 46.8 µM (inactive); in [15] it was 34.4 µM (inactive); in [16], 46.3 µM (inactive); in [17], 35.4 µM (inactive); in test [18], 16 µM (inactive).

As to `COC(=O)Cc1c(-c2[nH]c3ccccc3c2CC(=O)OC)[nH]c2ccccc12`, the GI50 was 23.2 µM (inactive) in [1]; above 50.7 µM in test [2]; > 55.6 µM (inactive) in [3]; 45.9 µM (inactive) in test [4]; > 54.2 µM (inactive) in [5]; 51.1 µM (inactive) in test [6]. In addition, the GI50 is > 53 µM (inactive) in [7]; > 53.2 µM (inactive) in test [8]; > 52.6 µM (inactive) in [9]; > 68.4 µM (inactive) in [10]; 27.7 µM (inactive) in test [11]; > 54.7 µM (inactive) in test [12]. In addition, the GI50 was > 53 µM (inactive) in test [13]; > 49 µM (inactive) in test [14]; 38.7 µM (inactive) in test [15]; > 55 µM (inactive) in test [20]; > 53.5 µM (inactive) in [16]; > 63 µM (inactive) in test [17]. The GI50 in test [18] is > 37.7 µM (inactive).

Regarding `COP(=O)(OC)C12CCOCCN1c1ccccc1C2=O` (configuration not stated), the GI50 is > 100 µM (inactive) in test [1]; above 100 µM in test [2]; > 100 µM (inactive) in test [3]; > 100 µM (inactive) in test [19]; > 100 µM (inactive) in test [4]; > 100 µM (inactive) in test [5]. For the same compound, the GI50 in test [6], in test [7], in test [8], in test [9], in test [10] and in test [12] was > 100 µM (inactive) throughout. Further, the GI50 in [13], in [14], in test [15], in test [16], in test [17] and in test [18] was > 100 µM (inactive) in each case.

On to `CCN(CC)CCN(C)CCc1ccc(Br)cc1`, for which the GI50 in test [1] is 29.7 µM (inactive); in [2], 61.1 µM; in test [3] it was > 100 µM (inactive); in [4] it was > 100 µM (inactive); in [5], 59.8 µM (inactive); in test [6], 41.4 µM (inactive). Also, the GI50 in test [7] is > 100 µM (inactive); in [8], > 100 µM (inactive); in test [9], > 100 µM (inactive); in test [10] it was 21.7 µM (inactive); in [11] it was 25.7 µM (inactive); in test [12] it was 24.7 µM (inactive). Further, the GI50 is 17.4 µM (inactive) in test [13]; 54.3 µM (inactive) in test [15]; > 100 µM (inactive) in [20]; 54.8 µM (inactive) in test [16]; > 100 µM (inactive) in [17]; > 100 µM (inactive) in test [18].

In the case of `NC1Cc2ccccc2OC1=O` (configuration not stated), the GI50 is > 100 µM (inactive) in test [1]; above 100 µM in test [2]; > 100 µM (inactive) in test [3]; > 100 µM (inactive) in test [4]; > 100 µM (inactive) in test [6]; > 100 µM (inactive) in test [7]. The GI50 in test [8], in [9], in test [10], in test [11], in [12] and in test [13] was > 100 µM (inactive) each time. For the same compound, the GI50 in test [14], in [15], in test [20], in test [16], in test [17] and in [18] was > 100 µM (inactive) in each case.

Regarding `Cc1cn(C2OC(CO)C(O)C2F)c(=O)[nH]c1=O` (configuration not stated), the GI50 in test [1] is 95.3 µM (inactive); in [2] it was above 100 µM; in test [3] it was > 100 µM (inactive); in test [19], > 100 µM (inactive); in [4] it was > 100 µM (inactive); in test [5] it was 73.3 µM (inactive). Besides, the GI50 in test [6] was > 100 µM (inactive); in test [7], 70.1 µM (inactive); in [8], > 100 µM (inactive); in [9], 61.5 µM (inactive); in [10], > 100 µM (inactive); in test [11], 59.7 µM (inactive). The GI50 in [12] was > 100 µM (inactive); in [13], > 100 µM (inactive); in test [14], 64.3 µM (inactive); in test [15], > 100 µM (inactive); in [16] it was > 100 µM (inactive); in test [17], 21.7 µM (inactive).

Regarding `CCOC(=O)c1c(SC)nc(-c2ccc(Cl)cc2)sc1=N.[O-][Cl+3]([O-])([O-])O`, the GI50 is 30.1 µM (inactive) in test [1]; 22.9 µM in [2]; 20.5 µM (inactive) in test [3]; 35 µM (inactive) in [19]; 20.8 µM (inactive) in [4]; 23.1 µM (inactive) in test [5]. In addition, the GI50 in [6] is 37.6 µM (inactive); in test [7] it was 40.9 µM (inactive); in test [8], 44.3 µM (inactive); in test [9] it was 37.7 µM (inactive); in [10] it was 27.9 µM (inactive); in test [11] it was 34.4 µM (inactive). Moreover, the GI50 in [12] was 25.9 µM (inactive); in test [13], 21.8 µM (inactive); in test [14], 30.8 µM (inactive); in [15], 41.7 µM (inactive); in [16] it was 48 µM (inactive); in [17], 26 µM (inactive). Also, in test [18], the GI50 is 37.2 µM (inactive).

Source of the values: ChEMBL document CHEMBL1201862, “PubChem BioAssay data set” (2004).
